Consider four molecules from patent US20260285868A1, “IMIDAZOTRIAZINE DERIVATIVES AS IL-17 MODULATORS” (UCB BIOPHARMA SRL, priority 2023, published 2026).

The structures appear in SMILES notation.

The target in this experiment is T1, IL-17A (Homo sapiens, UniProt Q16552).
T1 sequence (Q16552 24-155): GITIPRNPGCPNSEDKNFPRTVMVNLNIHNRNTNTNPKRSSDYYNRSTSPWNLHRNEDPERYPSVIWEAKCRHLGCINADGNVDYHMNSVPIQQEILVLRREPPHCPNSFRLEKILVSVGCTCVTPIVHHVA
The experiment is described as follows: Inhibition of IL-17A induced IL-6 release from dermal fibroblast cell line (HDF cell line assay). Particulars: HDF cells stimulated with IL-17A 50 pM + TNFα 25 pM; IL-6 measured by HTRF. The experiment is classed as cell-based. From the text:
Inhibition of IL-17A Induced IL-6 Release from Dermal Fibroblast Cell Line
The purpose of this assay is to test the neutralising ability to IL-17 proteins, in a human primary cell system. Stimulation of normal human dermal fibroblasts (HDF) with IL-17 alone produces only a very weak signal but in combination with certain other cytokines, such as TNFα, a synergistic effect can be seen in the production of inflammatory cytokines, i.e. IL-6.
HDFs were stimulated with IL-17A (50 pM) in combination with TNF-α (25 pM). The resultant IL-6 response was then measured using a homogenous time-resolved FRET kit from Cisbio. The kit utilises two monoclonal antibodies, one labelled with Eu-Cryptate (Donor) and the second with d2 or XL665 (Acceptor). The intensity of the signal is proportional to the concentration of IL-6 present in the sample (Ratio is calculated by 665/620×104).
The ability of a compound to inhibit IL-17 induced IL-6 release from human dermal fibroblasts is measured in this assay.
HDF cells (Sigma #106-05n) were cultured in complete media (DMEM+10% FCS+2 mM L-glutamine) and maintained in a tissue culture flask using standard techniques. Cells were harvested from the tissue culture flask on the morning of the assay using TrypLE (Invitrogen #12605036). The TrypLE was neutralised using complete medium (45 mL) and the cells were centrifuged at 300×g for 3 minutes. The cells were re-suspended in complete media (5 mL) counted and adjusted to a concentration of 3.125×10^4 cells/mL before being added to the 384 well assay plate (Corning #3701) at 40 μL per well. The cells were left for a minimum of three hours, at 37° C./5% CO2, to adhere to the plate.
Compounds were serially diluted in DMSO before receiving an aqueous dilution into a 384 well dilution plate (Greiner #781281), where 5 μL from the titration plate was transferred to 45 μL of complete media and mixed to give a solution containing 10% DMSO.
Mixtures of TNFα and IL-17 cytokine were prepared in complete media to final concentrations of TNFα 25 pM/IL-17A 50 pM, then 30 μL of the solution was added to a 384 well reagent plate (Greiner #781281).
10 μL from the aqueous dilution plate was transferred to the reagent plate containing 30 μL of the diluted cytokines, to give a 2.5% DMSO solution. The compounds were incubated with the cytokine mixtures for 5 h at 37° C. […]
From the Cisbio IL-6 FRET kit (Cisbio #62IL6PEB) europium cryptate and Alexa 665 were diluted in reconstitution buffer and mixed 1:1, as per kit insert. […] The mixture was incubated at room temperature for 3 h with gentle shaking (<400 rpm) before being read on a Synergy Neo 2 plate reader (Excitation: 330 nm; Emission: 615/645 nm).
On the technique in general: In TR-FRET formats the signal depends on donor and acceptor labels being close together.
As for `[2H]C([2H])([2H])O[C@H]1CCN(C(=O)[C@@H]2CCC(F)(F)CO2)[C@H](c2cnn3cc(C(NC(=O)c4ccnn4C)C4CCC(F)(F)CC4)nc3n2)C1` (single isomer, unassigned) [Example 2, N—[(S)-(4,4-Difluorocyclohexyl)(3-{(2S,4S or 2R,4R)-1-[(2S)-5,5-difluorotetrahydro-pyran-2-carbonyl]-4-(trideuteriomethoxy)piperidin-2-yl}imidazo[1,2-bl[1,2,4]triazin-6-yl)methyl]-2-methylpyrazole-3-carboxamide], the IC50 (in general, the point on the concentration scale where inhibition reaches its midpoint) was 3.98 nM. As for `CO[C@H]1CCN(C(=O)[C@@H]2CCC(F)(F)CO2)[C@H](c2cnn3cc(C(NC(=O)c4ccnn4C)C4CCC(F)(F)CC4)nc3n2)C1` (single isomer, unassigned) [Example 4, N—[(S)-(4,4-Difluorocyclohexyl)(3-{(2S,4S or 2R,4R)-1-[(2S)-5,5-difluorotetrahydro-pyran-2-carbonyl]-4-methoxypiperidin-2-yl}imidazo[1,2-bl[1,2,4]triazin-6-yl)methyl]-2-methylpyrazole-3-carboxamide], the figure is 3.16 nM; as for `[2H]C([2H])([2H])O[C@H]1CCN(C(=O)[C@@H]2CCC(F)(F)CO2)[C@@H](c2cnn3cc([C@@H](NC(=O)c4ccnn4C)C4CCC(F)(F)CC4)nc3n2)C1` (single isomer, unassigned) [Example 1, N—[(S)-(4,4-Difluorocyclohexyl)(3-{(2R,4S or 2S,4R)-1-[(2S)-5,5-difluorotetrahydro-pyran-2-carbonyl]-4-(trideuteriomethoxy)piperidin-2-yl}imidazo[1,2-bl[1,2,4]triazin-6-yl)methyl]-2-methylpyrazole-3-carboxamide], 39.8 nM. Under `CO[C@H]1CCN(C(=O)[C@@H]2CCC(F)(F)CO2)[C@@H](c2cnn3cc([C@@H](NC(=O)c4ccnn4C)C4CCC(F)(F)CC4)nc3n2)C1` (single isomer, unassigned) [Example 3, N—[(S)-(4,4-Difluorocyclohexyl)(3-{(2R,4S or 2S,4R)-1-[(2S)-5,5-difluorotetrahydro-pyran-2-carbonyl]-4-methoxypiperidin-2-yl}imidazo[1,2-b][1,2,4]triazin-6-yl)methyl]-2-methylpyrazole-3-carboxamide] stands 39.8 nM.
